Assay results from ChEMBL document CHEMBL1201862, “PubChem BioAssay data set” (2004).
“And” between values parts separate entries of the source, which are not always exact repeats. Equal values may be shown once.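 In this assay, cells in 96-well plates receive the compound at five concentrations for 48 hours. Endpoints are linearly interpolated between the surrounding concentrations. GI50 = concentration required for 50% inhibition of growth.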 The source made the active and inactive calls. Rule as the data show it: active = GI50 up to about 1.1 µM and inactive = higher.

Tests used:
Experiment in all cases: NCI-60 cell line screen, 48 h
[1] = test system: UACC-62
[2] = test system: NCI-H522
[3] = test system: SF-268
[4] = test system: LOX IMVI
[5] = test system: BT-549
[6] = test system: OVCAR-5
[7] = test system: SK-MEL-28
[8] = test system: HT-29
[9] = test system: RPMI-8226
[10] = test system: SF-295
[11] = test system: A498
[12] = test system: SK-MEL-5
[13] = test system: CCRF-CEM
[14] = test system: MDA-N
[15] = test system: SW-620
[16] = test system: Malme-3M
[17] = test system: Hs-578T
[18] = test system: IGROV-1
[19] = test system: RXF 393

| Structure (SMILES) | GI50 [1] | GI50 [2] | GI50 [3] | GI50 [4] | GI50 [5] | GI50 [6] | GI50 [7] | GI50 [8] | GI50 [9] | GI50 [10] | GI50 [11] | GI50 [12] | GI50 [13] | GI50 [14] | GI50 [15] | GI50 [16] | GI50 [17] | GI50 [18] | GI50 [19] |
| --- | --- | --- | --- | --- | --- | --- | --- | --- | --- | --- | --- | --- | --- | --- | --- | --- | --- | --- | --- |
| C/C(=N\NC(=S)N1CCCCC1)c1nc2cccnc2[nH]1 | 13.7 µM (inactive) | 12.9 µM (inactive) | 5.51 µM (inactive) | 7.83 µM (inactive) | 4.3 µM (inactive) | 9.66 µM (inactive) | 16 µM (inactive) | 4.3 µM (inactive) | 4.33 µM (inactive) | 8.51 µM (inactive) | 17.2 µM (inactive) | 4.03 µM (inactive) | 2.79 µM (inactive) | 14.6 µM (inactive) | 6.38 µM (inactive) | 27.9 µM (inactive) | 38.8 µM (inactive) | 21 µM (inactive) | – |
| O=C1CC(=O)NC(NN2C(=O)/C(=C/c3ccc(Cl)cc3)N=C2c2ccccc2)=N1 | 12.5 µM (inactive) | 10.1 µM (inactive) | 14.1 µM (inactive) | – | 15.8 µM (inactive) | 15.1 µM (inactive) | 19.1 µM (inactive) | 16.4 µM (inactive) | 11.3 µM (inactive) | 14.5 µM (inactive) | 16.9 µM (inactive) | 17.7 µM (inactive) | 6.4 µM (inactive) | 15.8 µM (inactive) | 17.4 µM (inactive) | 17.3 µM (inactive) | 14.3 µM (inactive) | 13.2 µM (inactive) | 14.1 µM (inactive) |
| COc1ccc(C2=C(N)c3ncccc3C2=O)cc1 | 60.8 µM (inactive) | – | > 100 µM (inactive) | > 100 µM (inactive) | > 100 µM (inactive) | > 100 µM (inactive) | > 100 µM (inactive) | > 100 µM (inactive) | > 100 µM (inactive) | > 100 µM (inactive) | > 100 µM (inactive) | – | > 100 µM (inactive) | > 100 µM (inactive) | > 100 µM (inactive) | 43.9 µM (inactive) | 18.9 µM (inactive) | > 100 µM (inactive) | 24.7 µM (inactive) |
| CSc1ncc2c(n1)-c1ccccc1OC2N1CCOCC1 (stereo not given) | 28.1 µM (inactive) | 34.4 µM (inactive) | 87.9 µM (inactive) | 65.5 µM (inactive) | 49.5 µM (inactive) | > 100 µM (inactive) | – | 90.4 µM (inactive) | 49.9 µM (inactive) | 49.7 µM (inactive) | 21.3 µM (inactive) | 40.4 µM (inactive) | 47.1 µM (inactive) | > 100 µM (inactive) | > 100 µM (inactive) | – | 61.2 µM (inactive) | 39.4 µM (inactive) | 53.8 µM (inactive) |
| CC1(C=O)CCC23COC4(CCC5C6(C)CCC(OC7OCC(OC8OC(CO)C(O)C(OC9OC(CO)C(O)C(O)C9O)C8OC8OCC(O)C(O)C8O)C(O)C7OC7OC(CO)C(O)C(O)C7O)C(C)(C)C6CCC5(C)C4(C)CC2O)C3C1 (stereo not given) | 1.71 µM (inactive) | 1.68 µM (inactive) | 1.14 µM (inactive) | 1.24 µM (inactive) | 1.57 µM (inactive) | 1.29 µM (inactive) | – | 0.849 µM (active) | 1.71 µM (inactive) | 0.908 µM (active) | 0.552 µM (active) | 1.61 µM (inactive) | 0.221 µM (active) | 0.557 µM (active) | 0.628 µM (active) | – | 1.5 µM (inactive) | 1.42 µM (inactive) | – |
| O=C1c2ccccc2C(=O)N1n1c(Cc2ccccc2)n[nH]c1=O | > 100 µM (inactive) | – | – | > 100 µM (inactive) | > 100 µM (inactive) | > 100 µM (inactive) | > 100 µM (inactive) | > 100 µM (inactive) | – | > 100 µM (inactive) | > 100 µM (inactive) | > 100 µM (inactive) | > 100 µM (inactive) | > 100 µM (inactive) | > 100 µM (inactive) | > 100 µM (inactive) | > 100 µM (inactive) | > 100 µM (inactive) | – |
| CC1=C[C@@H](C)C[C@]2(C)CC[C@H](O2)[C@]23CC[C@](C)(C[C@H](O2)[C@@H]2O[C@@](C)(CC2=O)[C@@H](O)[C@H]2CC[C@@]4(CCC[C@@H](O4)[C@H](C)C(=O)O[C@H]4C[C@H]([C@]5(O)OCC[C@H](C)[C@@H]5O)O[C@H]4C=C1)O2)O3 | 0.00461 µM (active) | 0.0134 µM (active) | 0.002 µM (active) | < 0.001 µM (active) | 0.0024 µM (active) | 0.0186 µM (active) | 0.00173 µM (active) | 0.00226 µM (active) | – | 0.00113 µM (active) | 0.00147 µM (active) | 0.00148 µM (active) | 0.00188 µM (active) | 0.0233 µM (active) | 0.0684 µM (active) | 0.00165 µM (active) | 0.00115 µM (active) | 0.00339 µM (active) | 0.00146 µM (active) |
| CCOC1NC(=O)Oc2ccccc21 (stereo not given) | > 100 µM (inactive) | > 100 µM (inactive) | > 100 µM (inactive) | > 100 µM (inactive) | > 100 µM (inactive) | > 100 µM (inactive) | > 100 µM (inactive) | > 100 µM (inactive) | – | > 100 µM (inactive) | > 100 µM (inactive) | > 100 µM (inactive) | > 100 µM (inactive) | > 100 µM (inactive) | > 100 µM (inactive) | > 100 µM (inactive) | > 100 µM (inactive) | > 100 µM (inactive) | > 100 µM (inactive) |
| O=c1n(Cc2ccccc2)c(=O)n2c(=O)n(Cc3ccccc3)c(=O)n12 | > 100 µM (inactive) | > 100 µM (inactive) | > 100 µM (inactive) | > 100 µM (inactive) | > 100 µM (inactive) | – | > 100 µM (inactive) | 54.6 µM (inactive) | > 100 µM (inactive) | > 100 µM (inactive) | > 100 µM (inactive) | > 100 µM (inactive) | > 100 µM (inactive) | > 100 µM (inactive) | > 100 µM (inactive) | > 100 µM (inactive) | > 100 µM (inactive) | – | – |
| O=C1CC(C(OCc2ccccc2)C(OCc2ccccc2)C(COCc2ccccc2)OCc2ccccc2)CC(=O)N1 (stereo not given) | – | – | > 75 µM (inactive) | > 75 µM (inactive) | > 100 µM (inactive) | > 75 µM (inactive) | > 75 µM (inactive) | > 75 µM (inactive) | > 75 µM (inactive) | > 75 µM (inactive) | > 100 µM (inactive) | > 75 µM (inactive) | – | > 75 µM (inactive) | > 100 µM (inactive) | > 100 µM (inactive) | > 75 µM (inactive) and 88.7 µM (inactive) | > 100 µM (inactive) | 42.9 µM (inactive) and 29.6 µM (inactive) |
| CC(=O)OCC(OC(C)=O)C(OC(C)=O)C(OC(C)=O)C(C=NN(C(C)=O)S(=O)(=O)c1ccc(/C=C2\NC(=O)N(C)C2=O)cc1)OC(C)=O (stereo not given) | 10.3 µM (inactive) | – | 26.2 µM (inactive) | 11.9 µM (inactive) | 12.4 µM (inactive) | 37.8 µM (inactive) | – | 24.7 µM (inactive) | 18.5 µM (inactive) | 42.8 µM (inactive) | 38 µM (inactive) | 29.6 µM (inactive) | – | 32.6 µM (inactive) | 26.4 µM (inactive) | 17.5 µM (inactive) | 25.3 µM (inactive) | 18.8 µM (inactive) | 13.4 µM (inactive) |
| O=C(CSc1nnc(-c2ccccn2)s1)N/N=C/c1ccc([N+](=O)[O-])cc1 | 76.4 µM (inactive) | > 100 µM (inactive) | 22.1 µM (inactive) | > 100 µM (inactive) | 56.2 µM (inactive) | > 100 µM (inactive) | > 100 µM (inactive) | > 100 µM (inactive) | – | 29.4 µM (inactive) | 31 µM (inactive) | > 100 µM (inactive) | > 100 µM (inactive) | > 100 µM (inactive) | > 100 µM (inactive) | > 100 µM (inactive) | 32.1 µM (inactive) | 20.9 µM (inactive) | 12.1 µM (inactive) |
| c1ccc2c(Nc3ncco3)cccc2c1 | > 10 µM (inactive) | > 10 µM (inactive) | > 10 µM (inactive) | > 10 µM (inactive) | > 10 µM (inactive) | > 10 µM (inactive) | > 10 µM (inactive) | > 10 µM (inactive) | – | > 10 µM (inactive) | > 10 µM (inactive) | > 10 µM (inactive) | > 10 µM (inactive) | > 10 µM (inactive) | > 10 µM (inactive) | > 10 µM (inactive) | > 10 µM (inactive) | > 10 µM (inactive) | – |
| O=C1NC(N2CCCCC2)=N/C1=C\c1ccc(Cl)cc1 | 26.5 µM (inactive) | 21 µM (inactive) | 38.2 µM (inactive) | 34.5 µM (inactive) | 71.4 µM (inactive) | > 100 µM (inactive) | 92 µM (inactive) | 16.6 µM (inactive) | 66.2 µM (inactive) | 60.5 µM (inactive) | – | 35.5 µM (inactive) | 39.7 µM (inactive) | 71 µM (inactive) | 68.4 µM (inactive) | 16.5 µM (inactive) | 28.5 µM (inactive) | 25.9 µM (inactive) | > 100 µM (inactive) |
| O=C(Nc1ccn(C2CC(O)C(CO)O2)c(=O)n1)c1ccccc1 (stereo not given) | > 100 µM (inactive) | > 100 µM (inactive) | > 100 µM (inactive) | > 100 µM (inactive) | > 100 µM (inactive) | > 100 µM (inactive) | > 100 µM (inactive) | > 100 µM (inactive) | > 100 µM (inactive) | > 100 µM (inactive) | > 100 µM (inactive) | > 100 µM (inactive) | > 100 µM (inactive) | > 100 µM (inactive) | > 100 µM (inactive) | – | > 100 µM (inactive) | > 100 µM (inactive) | – |
